Reference: patent publication US20260139254A1, “INTERFERING RNA FOR INHIBITING TOP1 GENE EXPRESSION AND USE THEREOF” (JENKEM TECHNOLOGY CO., LTD. (BEIJING), priority 2022, published 2026)
[Ψ] = pseudouridine; d = 2'-deoxy (DNA); r = 2'-OH (RNA)

Experiments:
[1] = Toxicity of LNP-siTOP1 and irinotecan on HCT116 cells (CCK-8 cell viability); format: cell-based, human; conditions: human, HCT116 colon cancer cells, HCT116, 72 h
Experimental: (§1) After 72 h of transfection, 10 μL of CCK-8 solution was added to each well, and the cells were cultured in the incubator with 5% CO2 at 37° C. for another 4 h. The absorbance value at 450 nm was measured using a microplate reader. Cell viability was calculated according to the following formula: […]
(§2) On the day before transfection, HCT116 human colon cancer cells were seeded into a 96-well cell culture plate at 5000 cells/well, the culture medium being IMDM containing 10% FBS and 1% Penicillin-Streptomycin, and after plating, the cell culture plate was placed in an incubator with 5% CO2 at 37° C. for 24 h to allow the cells to adhere to the wall. 3 replicate wells were made for each group. On the day of transfection, the culture medium was changed to an IMDM culture medium without antibiotics (containing 10% FBS). LNP-siTOP1-1604 diluted with Opti-MEM culture medium was added, and the working concentrations of the siRNA were 500, 200, 100, 50, 20, and 5 nM. The control groups were Blank (Opti-MEM at the equal volume) and the positive control drug, irinotecan, at concentrations of 500, 200, 100, 50, 20, 5, and 1 μM. The cell culture plate was placed in the incubator with 5% CO2 at 37° C., and the cells were cultured for another 72 h. The cell viability was detected according to the method in Example 3 (Table 10). Fitting was performed using Graphpad software.

[2] = system: HCT116 human colon cancer cells; assay: as above; format: cell-based; conditions: Homo sapiens, HCT-116; HCT116, 72 h, CCK-8
Experimental: as §1, §2

TOP1 mRNA = assay: Inhibitory effects of modified sequences of siTOP1-1604 on TOP1 mRNA in PC-3 cells; format: cell-based, human; conditions: PC-3, siRNA 50 nM
Experimental: PC-3 human prostate cancer cells were transfected with the modified siTOP1 according to the method in Example 2 at a siRNA working concentration of 50 nM. TOP1 mRNA levels were detected 48 h after the transfection. The control groups were Blank (Opti-MEM at the equal volume), Lipofectamine™ RNAiMAX (Lipo) transfection reagent, and the positive control unmodified siTOP-1604.

Row | Compound | viability at 72 h, 1 µM ([1]; 1 μM) [%] | viability at 72 h, 5 µM ([1]; 5 μM) [%] | viability at 72 h, 20 µM ([1]; 20 μM) [%] | viability at 72 h, 50 µM ([1]; 50 μM) [%] | viability at 72 h, 100 µM ([1]; 100 μM) [%] | viability at 72 h, 200 µM ([1]; 200 μM) [%] | viability at 72 h, 500 µM ([1]; 500 μM) [%] | IC50 [2] [µM] | Expression of TOP1 mRNA inhibited to (TOP1 mRNA; 48 h, compared to the control groups) [%] | Relative expression level, mean value (TOP1 mRNA; 48 h after transfection, Blank = 100.00)
1 | CCc1c2c(nc3ccc(OC(=O)N4CCC(N5CCCCC5)CC4)cc13)-c1cc3c(c(=O)n1C2)COC(=O)[C@]3(O)CC [Irinotecan] | 109 | 55.4 | 31.8 | 16.9 | 9.69 | 8.18 | 11.9 | 9.33 |  | 
2 | siTOP1-1604-m4: Pseudouridine-modified siTOP1-1604; sense strand SEQ ID NO: 55, antisense strand SEQ ID NO: 56 (sense GUGUGGACAAGAUCCGGAATT; antisense UUCCGGAUCUUGUCCACACTT; sense: sugars from the 5' end r19 d2, [Ψ] at 2, 4, 13, backbone not given here; antisense: sugars from the 5' end r19 d2, [Ψ] at 1, 2, 8, 10, 11, 13, backbone not given here) |  |  |  |  |  |  |  |  | 4.3 | 4.30
